In paper PMC10081574, “Evaluation of Antiviral Activity of Gemcitabine Derivatives against Influenza Virus and Severe Acute Respiratory Syndrome Coronavirus 2” (ACS Infectious Diseases, 2023):
Like-named read-outs stand apart in the source and are kept apart here.

Legend:
B/Lee/40 = test: CPE reduction antiviral assay in Lee-infected MDCK cells (MTT); format: cell-based, influenza B virus; settings: for EC90 / EC50: Influenza B virus, 72 h, MDCK; for EC90: read-out: EC90 Lee; for EC50: viability of infected cells to 50%; for SI90 Lee: ratio of CC10 to EC90; for SI50 Lee: ratio of CC50 to EC50
[1] = test system: influenza A and B viruses; test: CPE reduction antiviral assay, values summarised over influenza strains PR8, HK and Lee; format: cell-based, influenza virus; settings: for EC90 / EC50: span over PR8, HK and Lee; for EC90 / recovery of viability of virus-infected cells with 90% cutoff / EC50 / subtoxic concentration at which over 90% viability of infected cells was recorded: MDCK; for EC90: read-out: EC90 against influenza viruses; for recovery of viability of virus-infected cells with 90% cutoff / subtoxic concentration at which over 90% viability of infected cells was recorded: day 3; for SI90 against influenza viruses / SI50 against influenza viruses: over PR8, HK and Lee; for SI90 against influenza viruses: CC10/EC90; for EC50: read-out: EC50 against influenza viruses; for SI50 against influenza viruses: CC50/EC50
[2] = test system: A/Puerto Rico/8/34 (H1N1); settings: for SI90 PR8: ratio of CC10 to EC90; for SI50 PR8: ratio of CC50 to EC50
A/Hong Kong/8/68 (H3N2) [3] = settings: for SI90 HK: ratio of CC10 to EC90; for SI50 HK: ratio of CC50 to EC50
in vitro = settings: dog
[4] = test system: A/Puerto Rico/8/34 (H1N1); test: microbe, parasite or virus in culture; settings: Influenza A virus, 72 h; for EC50 / EC90: H1N1 / PR8, MDCK; for EC50: read-out: EC50 PR8; for EC90: read-out: EC90 PR8; for viability at 10 µM: H1N1|PR8, MDCK, read-out: viability of PR8-infected cells in library screening
A/Hong Kong/8/68 (H3N2) [5] = test: microbe, parasite or virus in culture; settings: Influenza A virus, H3N2, MDCK, 72 h; for EC50: read-out: EC50 HK; for EC90: read-out: EC90 HK; for viability at 10 µM: read-out: viability of HK-infected cells in library screening
MDCK cells = settings: dog, 3 days
[6] = MOI 0.001, day 3, viability of infected cells to 90%
[7] = MOI 0.001, day 3, read-out: EC50 Lee
[8] = read-out: EC50 Lee, MDCK, MOI 0.001, day 3

| Structure (SMILES) | EC90 (B/Lee/40; [6]) [µM] | EC50 (B/Lee/40; [7]) [µM] | SI90 Lee (B/Lee/40) | SI50 Lee (B/Lee/40) | EC90 ([1]; Influenza A virus, PR8, MDCK) [µM] | SI90 PR8 [2] | SI50 PR8 [2] | SI90 HK (A/Hong Kong/8/68 (H3N2) [3]) | SI50 HK (A/Hong Kong/8/68 (H3N2) [3]) | CC50 at 3 days (in vitro) [µM] | EC50 [4] [µM] | EC90 [4] [µM] | EC50 (A/Hong Kong/8/68 (H3N2) [5]) [µM] | EC90 (A/Hong Kong/8/68 (H3N2) [5]) [µM] | CC10 (MDCK cells) [µM] | SI90 against influenza viruses [1] | further results |
| --- | --- | --- | --- | --- | --- | --- | --- | --- | --- | --- | --- | --- | --- | --- | --- | --- | --- |
| O=C(Nc1ccn([C@@H]2O[C@H](CO)[C@@H](O)C2(F)F)c(=O)n1)c1ccc(F)nc1 [Compound 3c] | 22.6 ± 2 | 1.8 ± 0.3 | 11.1 | > 170.6 | 4.9 to 22.6 | 20.0 | > 90.6 | 51.2 | > 116.6 | > 300 | 3.3 ± 0.1 | 12.5 ± 3.6 | 2.6 ± 0.4 | 4.9 ± 0.4 | – | – | recovery of viability of virus-infected cells with 90% cutoff [1]: active |
| Cc1nc(C(F)(F)F)ccc1C(=O)Nc1ccn([C@@H]2O[C@H](CO)[C@@H](O)C2(F)F)c(=O)n1 [Compound 3g] | – | – | – | – | – | – | – | – | – | > 300 | – | – | – | – | 8.7 ± 8.2 | – | antiviral activity against influenza viruses (in words) [1]: completely lost antiviral activity |
| O=C(Nc1ccn([C@@H]2O[C@H](CO)[C@@H](O)C2(F)F)c(=O)n1)c1ccc([N+](=O)[O-])cn1 [Compound 2i] | – | – | 11.0 | > 464.8 | – | 8.1 | – | 15.7 | > 518.5 | > 300 | 1.1 | 2.2 ± 0.2 | 0.6 ± 0.1 | 1.1 | 17.9 ± 6.7 | > 1.4 | EC50 (B/Lee/40; [8]): 0.7 µM; EC90 (B/Lee/40): 1.6 ± 0.1 µM |
| O=C(Nc1ccn([C@@H]2O[C@H](CO)[C@@H](O)C2(F)F)c(=O)n1)c1ccc(C(F)(F)F)nc1 [Compound 3f] | – | 4.1 ± 0.1 | – | > 73.9 | – | – | > 73.6 | – | > 84.7 | > 300 | 4.1 ± 0.3 | – | 3.5 ± 0.6 | – | 7.9 ± 8.4 | – | – |
| Cc1ccc(C(=O)Nc2ccn([C@@H]3O[C@H](CO)[C@@H](O)C3(F)F)c(=O)n2)nc1 [Compound 2b] | 43.8 ± 24.4 | 8.1 ± 0.7 | 4.8 | > 37.3 | – | 8.3 | > 22.4 | 1.8 | > 5.8 | > 300 | 13.4 ± 0.9 | 25.3 ± 1.3 | 51.8 ± 42.6 | 117 ± 18.5 | 209.2 ± 61.7 | > 1.4 | – |
| O=C(Nc1ccn([C@@H]2O[C@H](CO)[C@@H](O)C2(F)F)c(=O)n1)c1ccc(-c2ccccc2)cn1 [Compound 2d] | – | – | – | > 7.7 | – | – | > 6.5 | > 1.4 | > 6.0 | > 300 | 46.1 ± 3 | 119 ± 66.2 | 50.2 ± 3.4 | 219 ± 36.3 | >300.0 | > 1.4 | EC50 (B/Lee/40; [8]): 39.1 ± 3.2 µM |
| O=C(Nc1ccn([C@@H]2O[C@H](CO)[C@@H](O)C2(F)F)c(=O)n1)c1ccccn1 [Compound 2a] | 2.2 ± 0.8 | 0.6 | 4.4 | > 495.7 | 1.4 to 2.2 | 5.5 | > 342.5 | 7.1 | > 462.2 | > 300 | 0.9 ± 0.2 | 1.8 ± 0.5 | 0.6 | 1.4 ± 0.1 | – | 4.4–7.1 | EC50 ([1]; Influenza A virus): 0.6 to 0.9 µM; subtoxic concentration at which over 90% viability of infected cells was recorded [1]: 3.7 µM; SI50 against influenza viruses [1]: > 342.5; EC90 [1]: 1.4 to 16.9 µM; viability at 10 µM [4]: > 50%; viability at 10 µM (A/Hong Kong/8/68 (H3N2) [5]): > 50% |
| O=C(Nc1ccn([C@@H]2O[C@H](CO)[C@@H](O)C2(F)F)c(=O)n1)c1ccc(Cl)nc1 [Compound 3d] | – | 10.6 ± 1.7 | – | > 28.4 | – | – | > 23.8 | – | > 31.5 | > 300 | 12.6 ± 2.5 | – | 9.5 ± 0.3 | – | 91.1 ± 53.8 | – | – |
| COc1ccc(C(=O)Nc2ccn([C@@H]3O[C@H](CO)[C@@H](O)C3(F)F)c(=O)n2)nc1 [Compound 2g] | 98.1 ± 16.7 | 13.3 ± 2.7 | > 3.1 | > 22.6 | – | > 4.4 | > 10.5 | > 9.3 | > 16.1 | > 300 | 28.5 ± 4.2 | 68.8 ± 22.7 | 18.6 ± 0.1 | 32.3 ± 0.7 | >300.0 | > 1.4 | – |
| NC(=O)c1nc(F)c[nH]c1=O [Favipiravir, reference compound] | 16.3 ± 4.2 | 1.5 ± 0.2 | > 18.4 | > 200.0 | – | > 35.3 | > 166.7 | > 43.5 | > 100.0 | > 300 | 1.8 ± 0.1 | 8.5 ± 0.2 | 3 ± 0.4 | 6.9 ± 1.8 | >300.0 | – | – |
| COc1ccc(C(=O)Nc2ccn([C@@H]3O[C@H](CO)[C@@H](O)C3(F)F)c(=O)n2)cn1 [Compound 3e] | – | 18.5 ± 2 | – | > 16.2 | – | – | > 12.8 | – | > 12.5 | > 300 | 23.5 ± 4.1 | – | 24 ± 2 | – | 129.7 ± 74.0 | – | – |
| Cc1cccnc1C(=O)Nc1ccn([C@@H]2O[C@H](CO)[C@@H](O)C2(F)F)c(=O)n1 [Compound 2c] | – | 26.2 ± 2 | – | > 11.5 | – | > 2.6 | > 9.2 | > 7.3 | > 11.2 | > 300 | 32.8 ± 5.8 | 114 ± 24.7 | 26.8 | 41.2 ± 0.5 | >300.0 | > 1.4 | – |
| CCC(CC)O[C@@H]1C=C(C(=O)O)C[C@H](N)[C@H]1NC(C)=O [Oseltamivir carboxylate, reference compound] | 60.4 ± 0.1 | 10 ± 0.9 | > 5.0 | > 30.0 | – | > 24.0 | > 375.0 | > 600.0 | > 6,000 | > 300 | 0.8 ± 0.4 | 12.5 ± 8.1 | < 0.05 | 0.5 ± 0.2 | >300.0 | – | – |
| O=C(Nc1ccn([C@@H]2O[C@H](CO)[C@@H](O)C2(F)F)c(=O)n1)c1ccc(F)cn1 [Compound 2f] | 25.7 ± 6.4 | 3.2 ± 2.3 | > 11.7 | > 94.8 | 10.7 to 34.3 | > 11.1 | > 41.6 | > 28.0 | > 49.9 | > 300 | 7.2 ± 0.4 | 26.9 ± 16.3 | 6 ± 0.1 | 10.7 ± 0.2 | – | > 8.7 | – |
| Cc1ccc(C(=O)Nc2ccn([C@@H]3O[C@H](CO)[C@@H](O)C3(F)F)c(=O)n2)cn1 [Compound 3b] | 1.7 | 0.7 | 6.0 | > 426.6 | 1.4 to 1.8 | 5.7 | > 325.8 | 7.3 | > 437.2 | > 300 | 0.9 | 1.8 ± 0.1 | 0.7 | 1.4 ± 0.2 | – | – | recovery of viability of virus-infected cells with 90% cutoff [1]: active |
| O=C(Nc1ccn([C@@H]2O[C@H](CO)[C@@H](O)C2(F)F)c(=O)n1)c1ccccc1 [Compound 1] | – | – | – | > 13.3 | 76.2 to 98.1 | > 3.9 | > 6.9 | > 3.1 | > 5.5 | > 300 | 43.4 ± 8.6 | 76.2 ± 30.9 | 54.2 ± 5.1 | 98.1 ± 0.2 | – | > 1.9 | EC50 (B/Lee/40; [8]): 22.5 ± 0.4 µM; EC90 (B/Lee/40): 78.7 ± 2.7 µM; EC50 ([1]; Influenza A virus): 22.5 to 54.2 µM; subtoxic concentration at which over 90% viability of infected cells was recorded [1]: 100 µM; SI50 against influenza viruses [1]: > 5.5; EC50 ([2]; read-out: EC50 PR8): 43.5 ± 8.6 µM; viability at 10 µM [4]: 10 to 20%; viability at 10 µM (A/Hong Kong/8/68 (H3N2) [5]): 10 to 20% |
